# US20230405201A1, “TECHNIQUES FOR INCREASING RED BLOOD CELL COUNT” (FRESENIUS MEDICAL CARE HOLDINGS, INC., priority 2020, published 2023)
# Read-outs that look alike come from different tables or passages of the source.
# What was measured:
# Piezo1 = conditions: cited from earlier work
# HSA = target: T1, HSA (Homo sapiens, UniProt P02768); conditions: cited from earlier work
# T1 construct: from tissue; host or cells: serum
# [1] = target: human serum albumin (HSA) (Homo sapiens, UniProt P02768); conditions: cited from earlier work
# Sequence of human serum albumin (HSA) (P02768 25-609): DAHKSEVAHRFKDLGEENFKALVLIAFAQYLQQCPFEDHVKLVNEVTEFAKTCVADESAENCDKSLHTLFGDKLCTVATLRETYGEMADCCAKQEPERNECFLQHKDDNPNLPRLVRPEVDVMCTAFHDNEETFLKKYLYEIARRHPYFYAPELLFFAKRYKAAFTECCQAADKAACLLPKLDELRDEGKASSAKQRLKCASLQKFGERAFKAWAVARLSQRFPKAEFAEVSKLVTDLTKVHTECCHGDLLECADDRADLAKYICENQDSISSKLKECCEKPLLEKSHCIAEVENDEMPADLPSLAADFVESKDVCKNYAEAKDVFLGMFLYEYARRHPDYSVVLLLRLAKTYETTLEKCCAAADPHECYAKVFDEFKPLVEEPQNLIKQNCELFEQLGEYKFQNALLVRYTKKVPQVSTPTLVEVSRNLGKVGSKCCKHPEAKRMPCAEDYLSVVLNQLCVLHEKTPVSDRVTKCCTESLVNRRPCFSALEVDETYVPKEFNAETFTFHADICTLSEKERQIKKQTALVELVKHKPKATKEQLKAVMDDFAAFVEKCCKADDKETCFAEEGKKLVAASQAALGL
# [2] = cited from earlier work
# [3] = Serum concentration of CMPF in normal and uremic subjects; assay type: in vivo, human; conditions: uremic versus average normal concentration
# Procedure: FIG. 4 illustrates carboxy-4-methyl-5-propyl-2-furanpropionate (CMPF) 401 in accordance with the present disclosure. CMPF is a 240 Da metabolite of furan fatty acids and a protein-bound uremic retention solute normally cleared by the healthy kidney. In CKD patients, CMPF levels are increased 5- to 15-fold compared to healthy subjects.
# An average normal concentration for CMPF may be a mean (±SD) of about 4.6±1.8 with a range between about 3.6 and 7.7 mg/L. In uremic patients the mean concentration (CU) is about 25.9±10.2 mg/L (with a range of about 3.7 to 94 mg/L).
# Accordingly, the relative increase (CU/CN) may be over 5-times higher than the average normal concentration. […] As much as 99.5% of all CMPF may be found bound to HSA in serum. Consequently, this high association to HSA may prevent a sufficient secretion due to lower renal clearance rates in uremic patients, for example, at a rate of about 0.05 mL/min, compared to 0.40 mL/min for healthy patients. Due to its strong binding affinity to HSA, the removal of CMPF through conventional hemodialysis is generally difficult and even practically ineffective.
# [4] = cited from earlier work; remark: listed apart in the source
# HSA's binding site 1 = HSA's binding site 1 (Homo sapiens, UniProt P02768); conditions: cited from earlier work
# Sequence of HSA's binding site 1 (P02768 25-609): as above
# T1 sequence (P02768 25-609): as above
compound,measurement,setting,value
Cc1oc(-c2cccs2)cc1C(=O)O [Jedi2],Piezo1 stimulation,Piezo1,stimulate Piezo1
Cc1oc(-c2ccccc2)cc1C(=O)O [Jedi1],Piezo1 stimulation,Piezo1,stimulate Piezo1
Clc1cccc(Cl)c1CSc1nnc(-c2cnccn2)s1 [Yoda1],Piezo1 stimulation,Piezo1,stimulate Piezo1
"CCCc1oc(CCC(=O)O)c(C(=O)O)c1C [CMPF, 3-carboxy-4-methyl-5-propyl-2-furanpropionate]",CMPF found bound to HSA in serum,HSA,≤ 99.5%
same,constant of association with HSA molecules,[1],about 10^8 M^−1
same,"average normal concentration, mean (±SD)",[2]; normal,about 4.6±1.8 mg/L
same,mean concentration (CU),[2]; uremic patients,about 25.9±10.2 mg/L
same,relative increase (CU/CN),[3],over 5 times
same,renal clearance rate,[4]; healthy patients,0.40 mL/min
same,renal clearance rate,[4]; uremic patients,about 0.05 mL/min
"CC(C)C1=CC(=O)C2(C)C(C1=O)C1(C)C(=O)C=C(C(C)C)C(=O)C21 (centres unmarked) [DTQ, dithymoquinone]",binding affinity towards HSA's binding site 1 relative to CMPF,HSA's binding site 1,higher binding affinity towards HSA's binding site 1 than CMPF
